According to US6894072B2, “Compounds as NS3-serine protease inhibitors of hepatitis C virus” (Schering Corporation, priority 2002, dated 2005):

Molecular target: T1, HCV serine protease (Hepatitis C virus genotype 1a, UniProt P27958)
T1 construct: Spectrophotometric assay for the HCV serine protease
Assay: Spectrophotometric assay for HCV protease inhibitory activity
Format: biochemical
Settings: procedure of WO 02/08244
Description: Assay for HCV Protease Inhibitory Activity: Spectrophotometric Assay: Spectrophotometric assay for the HCV serine protease was performed on the inventive compounds by following the procedure described in PCT Publication No. WO 02/08244 published Jan. 31, 2002. The activity of the compounds in Table 1 is shown in the same Table.

T1 sequence (P27958 1027-1657): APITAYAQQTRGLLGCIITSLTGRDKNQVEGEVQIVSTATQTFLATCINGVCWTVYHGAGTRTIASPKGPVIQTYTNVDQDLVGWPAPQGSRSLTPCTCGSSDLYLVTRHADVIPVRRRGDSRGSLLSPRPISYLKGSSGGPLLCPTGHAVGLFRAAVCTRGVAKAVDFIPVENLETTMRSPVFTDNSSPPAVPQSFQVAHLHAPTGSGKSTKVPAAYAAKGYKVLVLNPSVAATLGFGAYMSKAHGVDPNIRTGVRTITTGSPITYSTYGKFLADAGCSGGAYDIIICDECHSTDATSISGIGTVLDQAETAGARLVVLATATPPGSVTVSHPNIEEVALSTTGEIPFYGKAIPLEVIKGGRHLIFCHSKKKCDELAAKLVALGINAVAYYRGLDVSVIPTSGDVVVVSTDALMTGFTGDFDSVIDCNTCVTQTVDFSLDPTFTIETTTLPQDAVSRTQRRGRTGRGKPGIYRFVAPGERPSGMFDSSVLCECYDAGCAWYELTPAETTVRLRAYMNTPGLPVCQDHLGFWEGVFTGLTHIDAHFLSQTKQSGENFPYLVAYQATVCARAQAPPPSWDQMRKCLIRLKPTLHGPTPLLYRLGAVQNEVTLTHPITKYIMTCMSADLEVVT
T1 sequence (P27958 1658-1711): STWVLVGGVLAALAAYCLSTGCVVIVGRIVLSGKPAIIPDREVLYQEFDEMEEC

Activity (binding activity) | Structure (SMILES)
A (Binding activity A: <5 μM) | CC(C)(C)OC(=O)N[C@H](C(=O)N1CC2C([C@H]1C(=O)NC(CC1CCC1)C(=O)C(=O)N1CC[C@H]1C(=O)OCc1ccccc1)C2(C)C)C1CCCCC1 (stereo partly shown) [Entry 4]
A (Binding activity A: <5 μM) | CC(C)(C)OC(=O)N[C@H](C(=O)N1CC2C([C@H]1C(=O)NC(CC1CCC1)C(=O)C(=O)N1CCC1)C2(C)C)C1CCCCC1 (stereo partly shown) [Entry 1]
A (Binding activity A: <5 μM) | CC(C)(C)OC(=O)N[C@H](C(=O)N1CC2C([C@H]1C(=O)NC(CC1CCC1)C(=O)C(=O)N1CC[C@H]1C(=O)O)C2(C)C)C1CCCCC1 (stereo partly shown) [Entry 3]
A (Binding activity A: <5 μM) | COC(=O)[C@@H]1CCN1C(=O)C(=O)C(CC1CCC1)NC(=O)[C@@H]1C2C(CN1C(=O)[C@@H](NC(=O)OC(C)(C)C)C1CCCCC1)C2(C)C (stereo partly shown) [Entry 2]
